{"source": "patent US20200188361A1", "about": "“USE OF MITOCHONDRIAL ACTIVITY INHIBITORS FOR THE TREATMENT OF POOR PROGNOSIS ACUTE MYELOID LEUKEMIA” (UNIVERSITE DE MONTREAL, priority 2016, published 2020)", "key": {"OCI-AML5 cells": {"system": "OCI-AML5 cells", "conditions": "FIG. 5G, 6-day culture", "protocol": "FIGS. 5A-5J show the results on experiments assessing the mode of action of Mubritinib for mediating tumor cell death. FIG. 5A: OCI-AML3 leukemic cells were either pre-incubated for 4 hours with 6 mM N-acetyl-cysteine (NAC), a reactive oxygen species (ROS) scavenger, or with vehicle (water) before being treated with 100 nM Mubritinib for 24 h or vehicle (DMSO). […] FIGS. 5C and 5D show the levels of reduced and oxidized levels of glutathione, respectively, in OCI-AML3 treated or not with Mubritinib, as detected by liquid chromatography-mass spectrometry (LC/MS). […] FIG. 5G is a graph depicting dose-response curves upon Mubritinib treatment (6-day culture assay in 384-well plates) of OCI-AML3 and OCI-AML5 cell lines. […]\nPatient cells were seeded in 384-well plates at a density of 5,000 cells in 50 μL per well. […] Viable cell counts per well were evaluated after 6 days of culture using the CellTiterGlo® assay (Promega®) according to the manufacturer's instruction. The percent of inhibition was calculated as follows: 100−(100×(mean luminescence(compound)/mean luminescence(DMSO)); where mean-luminescence(compound) corresponds to the average of luminescent signals obtained for the compound-treated cells, and mean-luminescence(DMSO) corresponds to the average of luminescent signals obtained for the control DMSO-treated cells."}, "OCI-AML3 cells [1]": {"system": "OCI-AML3 cells", "protocol": "LC/MS Metabolite Measurements (Citric Acid Cycle Intermediates and Glutathione) LC/MS metabolite measurements were carried out at the McGill Metabolomics platform. Authentic metabolite standards were purchased from Sigma-Aldrich Co., while the following LC/MS grade solvents and additives were purchased from Fisher: ammonium acetate, formic acid, water, methanol, and acetonitrile. OCI-AML3 cells (5 million cells, quadruplicates, treated with either DMSO or Mubritinib 500 nM for 20 h) were washed twice with ice-cold 150 mM ammonium formate pH 7.2. Metabolites were then extracted using 380 μl of LC/MS grade 50% methanol/50% water mixture and 220 μl of cold acetonitrile. Samples were then homogenized by 1.4 mm ceramic bead beating 2 min at 30 Hz (TissueLyser, Qiagen). A volume of 300 μl of ice-cold water and 600 μl of ice-cold methylene chloride were added to the lysates. Samples were vortexed and allowed to rest on ice for 10 min for phase separation followed by centrifugation at 4,000 rpm for 5 min. The upper aqueous layer was transferred to a fresh pre-chilled tube. Samples were eventually dried by vacuum centrifugation operating at −4° C. (Labconco) and stored at −80° C. until ready for LC-MS/MS data collection. For LC-MS/MS analysis, specimens were first re-suspended in 50 μl of water and clarified by centrifugation for 15 min at 15,000 rpm at 1° C. Samples were maintained at 4° C. for the duration of the LC-MS/MS analysis in the autosampler."}, "AML patient specimens": {"system": "AML patient specimens", "assay": "Cell dose-response viability assay on AML patient specimens (primary and validation screen)", "type": "cell-based, human", "conditions": "Homo sapiens; poor prognostic triple-mutated specimens (FIG. 3G); read-out: median EC50 in AML specimens with simultaneous mutations in NPM1, DNMT3A and FLT3-ITD", "protocol": "(§1) frozen AML mono-nucleated cells were thawed at 37° C. in Iscove's modified Dulbecco's medium (IMDM) containing 20% FBS and DNase I (100 μg/mL).\nPatient cells were seeded in 384-well plates at a density of 5,000 cells in 50 μL per well. In the initial screen, compounds were added to seeded cells in serial dilutions (10 dilutions, 1:3, starting from 10 μM or 20 μM), in duplicates. Cells treated with 0.1% DMSO without additional compound were used as negative controls. Viable cell counts per well were evaluated after 6 days of culture using the CellTiterGlo® assay (Promega®) according to the manufacturer's instruction. The percent of inhibition was calculated as follows: 100−(100×(mean luminescence(compound)/mean luminescence(DMSO)); where mean-luminescence(compound) corresponds to the average of luminescent signals obtained for the compound-treated cells, and mean-luminescence(DMSO) corresponds to the average of luminescent signals obtained for the control DMSO-treated cells."}, "OCI-AML3 leukemic cells": {"system": "OCI-AML3 leukemic cells", "conditions": "500 nM, 24 h (FIG. 5B)", "protocol": "(§2) FIGS. 5A-5J show the results on experiments assessing the mode of action of Mubritinib for mediating tumor cell death. FIG. 5A: OCI-AML3 leukemic cells were either pre-incubated for 4 hours with 6 mM N-acetyl-cysteine (NAC), a reactive oxygen species (ROS) scavenger, or with vehicle (water) before being treated with 100 nM Mubritinib for 24 h or vehicle (DMSO). […] FIGS. 5C and 5D show the levels of reduced and oxidized levels of glutathione, respectively, in OCI-AML3 treated or not with Mubritinib, as detected by liquid chromatography-mass spectrometry (LC/MS). […] FIG. 5G is a graph depicting dose-response curves upon Mubritinib treatment (6-day culture assay in 384-well plates) of OCI-AML3 and OCI-AML5 cell lines. FIGS. 5H-J are graphs depicting dose-response curves following treatment of OCI-AML3 and OCI-AML5 cell lines with other ETC inhibitors, namely Oligomycin (inhibitor of complex V, FIG. 5H), Rotenone (inhibitor of complex I, FIG. 5I) and Deguelin (inhibitor of complex I, FIG. 5J).\n(§3) Dead cells were stained using Propidium iodide at a final concentration of 1 μg/mL."}, "OCI-AML3 cells [2]": {"system": "OCI-AML3 cells", "protocol": "as §2, §3", "remark": "listed apart in the source"}, "[3]": {"target": "human epidermal growth factor receptor 2 (ERBB2/HER2) (Homo sapiens, UniProt P04626)", "sequence (P04626 23-1255)": "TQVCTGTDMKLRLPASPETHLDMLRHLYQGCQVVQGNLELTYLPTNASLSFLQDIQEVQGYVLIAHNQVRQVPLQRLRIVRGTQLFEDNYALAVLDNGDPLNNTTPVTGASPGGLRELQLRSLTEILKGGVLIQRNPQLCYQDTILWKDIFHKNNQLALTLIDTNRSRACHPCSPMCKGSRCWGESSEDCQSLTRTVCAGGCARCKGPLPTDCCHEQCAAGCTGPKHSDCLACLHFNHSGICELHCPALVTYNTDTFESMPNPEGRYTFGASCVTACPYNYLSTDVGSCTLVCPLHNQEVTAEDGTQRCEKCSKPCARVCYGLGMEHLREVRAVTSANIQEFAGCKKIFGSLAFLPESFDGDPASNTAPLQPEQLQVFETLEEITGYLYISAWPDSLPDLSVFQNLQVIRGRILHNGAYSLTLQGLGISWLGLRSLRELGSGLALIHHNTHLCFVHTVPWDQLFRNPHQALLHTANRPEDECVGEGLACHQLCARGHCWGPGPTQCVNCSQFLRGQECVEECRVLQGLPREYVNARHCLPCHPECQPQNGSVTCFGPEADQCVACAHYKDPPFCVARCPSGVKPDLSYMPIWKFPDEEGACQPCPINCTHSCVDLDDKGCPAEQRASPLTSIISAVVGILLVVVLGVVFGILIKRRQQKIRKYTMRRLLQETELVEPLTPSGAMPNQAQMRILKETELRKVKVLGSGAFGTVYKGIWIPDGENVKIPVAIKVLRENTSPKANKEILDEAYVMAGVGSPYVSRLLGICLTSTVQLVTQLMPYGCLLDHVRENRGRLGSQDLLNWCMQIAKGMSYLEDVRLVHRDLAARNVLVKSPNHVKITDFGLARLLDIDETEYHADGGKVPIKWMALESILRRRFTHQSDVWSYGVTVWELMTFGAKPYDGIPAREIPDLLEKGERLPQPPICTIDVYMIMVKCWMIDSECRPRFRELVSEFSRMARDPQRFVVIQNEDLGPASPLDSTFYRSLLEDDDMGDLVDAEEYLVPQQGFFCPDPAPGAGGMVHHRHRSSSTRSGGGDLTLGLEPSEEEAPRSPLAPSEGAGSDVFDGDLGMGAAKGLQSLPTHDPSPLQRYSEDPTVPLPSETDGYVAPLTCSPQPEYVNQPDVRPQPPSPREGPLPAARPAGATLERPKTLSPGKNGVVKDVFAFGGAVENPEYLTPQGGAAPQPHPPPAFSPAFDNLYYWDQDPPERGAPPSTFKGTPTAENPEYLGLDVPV", "conditions": "described in Nagasawa et al.; cited from earlier work"}, "[4]": {"system": "mitochondrial electron transfer chain (ETC) complex I", "conditions": "cell free assay (FIG. 5F)", "protocol": "as §2"}, "[5]": {"system": "HOX-high AML patient cells", "assay": "Primary chemical screen of 60 compounds, cell dose-response viability assay (CellTiterGlo, 6 days)", "type": "cell-based, human", "protocol": "as §1\n(§4) All powders were dissolved in DMSO and diluted in culture medium immediately before use. Final DMSO concentration in all conditions was 0.1%. The 60 compounds were purchased from various suppliers including Santa Cruz, Selleckchem, Calbiochem, AdooQ Bioscience, Cayman chemical and Synkinase.\n(§5) Patient cells were seeded in 384-well plates at a density of 5,000 cells in 50 μL per well. In the initial screen, compounds were added to seeded cells in serial dilutions (10 dilutions, 1:3, starting from 10 μM or 20 μM), in duplicates. Cells treated with 0.1% DMSO without additional compound were used as negative controls. Viable cell counts per well were evaluated after 6 days of culture using the CellTiterGlo® assay (Promega®) according to the manufacturer's instruction.\n(§6) Using high expression of HOXA9 and HOXA10 as a surrogate for the detection of HOX-network-high patient samples, the survival of HOX-high versus HOX-med/low specimens contacted with 60 inhibitors targeting receptor tyrosine kinases (RTK), members of the RAS and PI3K pathways, was assessed (FIG. 2A, Table 4)."}, "[6]": {"system": "HOX-med/low AML patient cells", "assay": "Primary chemical screen of 60 compounds, cell dose-response viability assay (CellTiterGlo, 6 days)", "type": "cell-based, human", "conditions": "Homo sapiens, 144 h; primary screen; mean over HOX-med/low patient specimens; 6 days culture; top concentration 10 μM or 20 μM; read-out: MEAN EC50 HOX-med/low", "protocol": "as §1, §4, §5, §6"}, "[7]": {"system": "Complex I enzyme activity in OCI-AML3 cells", "conditions": "FIG. 8", "method": "Complex I activity is determined by following the oxidation of NADH to NAD+ and the simultaneous reduction of a dye which leads to increased absorbance at OD=450 nm."}, "[8]": {"conditions": "500 nM, 24 h, relative to DMSO control"}}, "data": [{"smiles": "FC(F)(F)c1ccc(/C=C/c2nc(COc3ccc(CCCCn4ccnn4)cc3)co2)cc1", "note": "[Mubritinib, 1-(4-{4-[(2-{(E)-2-[4-(trifluoromethyl)phenyl]ethenyl}-1,3-oxazol-4-yl)methoxy]phenyl}butyl)-1H-1,2,3-triazole]", "values": [{"measurement": "sensitivity of OCI-AML5 cells to compound-induced cell death", "setting": "OCI-AML5 cells", "value": "resistant"}, {"measurement": "levels of oxidized glutathione", "setting": "OCI-AML3 cells [1]; [8]", "value": "increased"}, {"measurement": "levels of reduced glutathione", "setting": "OCI-AML3 cells [1]; [8]", "value": "decreased"}, {"measurement": "level of citrate", "setting": "OCI-AML3 cells [1]; OCI-AML3, Mubritinib 500 nM for 20 h vs DMSO (FIG. 6A)", "value": "reduces the levels"}, {"measurement": "level of alpha-ketoglutarate", "setting": "OCI-AML3 cells [1]; OCI-AML3, Mubritinib 500 nM for 20 h vs DMSO (FIG. 6B)", "value": "reduces the levels"}, {"measurement": "level of succinate", "setting": "OCI-AML3 cells [1]; OCI-AML3, Mubritinib 500 nM for 20 h vs DMSO (FIG. 6C)", "value": "reduces the levels"}, {"measurement": "level of fumarate", "setting": "OCI-AML3 cells [1]; OCI-AML3, Mubritinib 500 nM for 20 h vs DMSO (FIG. 6D)", "value": "reduces the levels"}, {"measurement": "level of malate", "setting": "OCI-AML3 cells [1]; OCI-AML3, Mubritinib 500 nM for 20 h vs DMSO (FIG. 6E)", "value": "reduces the levels"}, {"measurement": "EC50", "setting": "AML patient specimens", "value": 0.096, "unit": "µM"}, {"measurement": "level of ROS activity (hydroxyl, peroxyl) by DCFDA", "setting": "OCI-AML3 leukemic cells", "value": "increased"}, {"measurement": "Mubritinib-induced apoptosis in the presence of the ROS scavenger N-acetyl-cysteine (NAC)", "setting": "OCI-AML3 cells [2]; 4 hours pre-incubation with 6 mM NAC, then 100 nM Mubritinib for 24 h (FIG. 5A)", "value": "significantly decreased"}, {"measurement": "Annexin V staining (marker of apoptosis)", "setting": "OCI-AML3 cells [2]; 24 hours, 100 nM or 10 μM (FIG. 4C)", "value": "increase in Annexin V staining"}, {"measurement": "number of dead (PI-positive) cells", "setting": "OCI-AML3 cells [2]; 27 hours of treatment, compared to DMSO (FIG. 4B)", "value": "increase in the number of dead (PI-positive) cells"}, {"measurement": "live cell counts (Propidium Iodide-negative cells)", "setting": "OCI-AML3 cells [2]; four days of treatment, different concentrations, dose-dependent (FIG. 4A)", "value": "reduction of live cell counts"}, {"measurement": "inhibition of ERBB2/HER2", "setting": "[3]", "value": "potent inhibitor"}, {"measurement": "ETC Complex I activity", "setting": "[4]", "value": "inhibitory effect on ETC Complex I activity"}, {"measurement": "EC50", "setting": "[5]; Homo sapiens, 144 h, primary screen, mean over HOX-high patient specimens, 6 days culture, top concentration 10 μM or 20 μM, read-out: MEAN EC50 HOX-high", "value": 0.315, "unit": "µM"}, {"measurement": "difference in sensitivity of HOX-high versus HOX-med/low patient cells", "setting": "[5]; primary screen (FIG. 2B)", "value": "significantly more sensitive"}, {"measurement": "FOLD CHANGE High/Med-low", "setting": "[5]; ratio of mean EC50 HOX-high to mean EC50 HOX-med/low", "value": 0.2}, {"measurement": "EC50", "setting": "[6]", "value": 1.38, "unit": "µM"}, {"measurement": "inhibitory effect on complex I in diaphorase-type (NADH oxidation) assay", "setting": "[7]", "value": "NADH-independent"}]}]}
